Results on three molecules are retold here after US20260217701A1, “SELECTIVE BET INHIBITORS AND USES THEREOF” (Tay Therapeutics Limited, priority 2022, published 2026).

One series has as its system BET BD2. Conditions: public sources, not a head-to-head trial, cited from earlier work.
For series [1], the system named is goblet cells in gastrointestinal villi. The following applies: at 28 days; Faivre et al.; not head-to-head; cited from earlier work.
Series [2] can be described thus: SLE (lupus) model: body weight. Format: in vivo, MRL/MpJ-Faslpr mice. Conditions: for Mean Body Weight: Cyclophosphamide 50 mg/kg IP once a week. The procedure: (§1) Female MRL/MpJ-Faslpr mice (The Jackson Laboratory) were used to assess the efficacy of Compound A in treating lupus. Starting when animals were 10 weeks of age, protein concentration in urine was measured using urine dipsticks.
(§2) At the start of the study, each group in the study had two animals that were 9 weeks old, and all others were 10 weeks old. Dosing of all animals with the test compounds began when the older animals were 11 weeks old. […] […] Dosing was at a consistent time each dosing day throughout the study.
(§3) Compound A may be formulated as illustrated in Experimental Method A (see Table 2E.). […] A stock solution of Compound A in DMSO (stock solution concentration of Compound A of 40 mg/mL) was prepared and aliquots for weekly preparations were frozen at −20° C. On each preparation day, a stock solution aliquot was thawed and diluted with other vehicle components to the desired concentration. Formulated Compound A and vehicle were at room temperature for dosing.
(§4) The study began when the older animals were 11 weeks old, and concluded when the older animals were 19 weeks old. Body weight was recorded once a week, with the exception of two weight measurements taken the first week of the study (when the older animals were 11 weeks old). Proteinuria was measured in the urine of animals with urine dipsticks once a week, starting when the older animals were 10 weeks old. […] Blood samples were taken retro-orbitally at the start of the study to establish a baseline (15 animals, 3 per group), and when the older animals were 16 weeks (all animals) and when animals were 19 weeks (all animals) at the conclusion of the study. Blood urea nitrogen (BUN) was measured in all animals at study termination in blood samples. After blood collection, animals were euthanized, perfused with PBS, and the left kidneys were collected and weighed and fixed in 10% buffered formalin. Left kidneys were then processed to a formalin-fixed, paraffin-embedded (FFPE) block, and histology was analyzed in Periodic Acid-Schiff-stained sections (1 section per slide), using the criteria described in Alperovich et al., Lupus, 16:18-24 (2007). Right kidneys were weighed and snap-frozen at −80° C. Spleens were also collected and weighed. SLE in animals treated with a BET inhibitor and vehicle.

Series [3] has as its system lupus. As to the kind of experiment: SLE (lupus) model: proteinuria scores. Format: in vivo, MRL/MpJ-Faslpr mice. The following applies: Cyclophosphamide 50 mg/kg IP once a week. The procedure:
as §1, §2, §3, §4

Series [4] deals with lupus. Kind of series: SLE (lupus) model: kidney histology lesion scores. The following applies: Week 19. The class given is in vivo, MRL/MpJ-Faslpr mice. The procedure: as §1, §2, §3, §4
In series [5] the test system is lupus. As to the kind of experiment: SLE (lupus) model: kidney and spleen weight. Format: in vivo, MRL/MpJ-Faslpr mice. The following applies: Week 19. The procedure:
as §1, §2, §3, §4

Series [6] deals with lupus. As to the kind of experiment: SLE (lupus) model: blood urea nitrogen (BUN) in serum. Format: in vivo, MRL/MpJ-Faslpr mice. The following applies: Cyclophosphamide 50 mg/kg IP once a week; Week 19. The procedure:
as §1
At the start of the study, each group in the study had two animals that were 9 weeks old, and all others were 10 weeks old. Dosing of all animals with the test compounds began when the older animals were 11 weeks old. Starting on Day 1, in Groups 1-4, vehicle or Compound A was administered per os (PO) […] (QD) as described above in Table 33. […] Dosing was at a consistent time each dosing day throughout the study.
as §3, §4
BUN provides important information about how well kidneys are working. A BUN test measures the amount of urea nitrogen in the blood and indicates how much urea has been processed by the kidneys and is indicative of renal competency. Urea is a waste product that is excreted in urine.

A further series has as its system anti-dsDNA antibodies. Kind of series: SLE (lupus) model: anti-dsDNA antibodies in serum by ELISA. Format: in vivo, MRL/MpJ-Faslpr mice. Conditions: for Anti-dsDNA Antibodies in serum, mean: Cyclophosphamide 50 mg/kg IP once a week. The procedure:
as §1, §2, §3, §4
Anti-dsDNA antibody test measures the amount of antibody to double-stranded deoxyribonucleic acid (anti-dsDNA) that may be present in the blood. Anti-dsDNA antibodies are highly specific markers of SLE as these antibodies are not thought to be present in other kinds of autoimmune disorder.

The target of the next series is IL-17A (Homo sapiens, UniProt Q16552). The following applies: from FDA pharmacology review / corporate presentation; read-out: reported IC50 for IL-17A; cited from earlier work.
[7] abbreviates: Cyclophosphamide 50 mg/kg IP once a week.

Sequence of IL-17A (Q16552 24-155): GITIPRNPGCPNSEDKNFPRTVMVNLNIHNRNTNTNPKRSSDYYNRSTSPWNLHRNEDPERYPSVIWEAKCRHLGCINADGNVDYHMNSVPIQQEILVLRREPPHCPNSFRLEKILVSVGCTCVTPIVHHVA

Take `CCS(=O)(=O)Nc1ccc(Oc2ccc(F)cc2F)c(-c2cn(C)c(=O)c3[nH]ccc23)c1` [ABBV-075]: the BD2 with BET BD2 (comparator BET inhibitors) is listed as 13 nM. In the series with BET BD2 (nanoBRET assay, comparator), the “Selectivity (BD1/BD2)” value was 2.6x. The “Effect on goblet cells in gastrointestinal villi” value in series [1] is recorded as “depleted goblet cells”.

For the molecule `O=P1(N(CCCl)CCCl)NCCCO1` (stereo not drawn) [Cyclophosphamide, cyclophosphamide, reference compound], the Mean Body Weight is 35.0 g in series [2] (Week 11); 36.2 g in series [2] (Week 12); 36.1 g in [2] (Week 13); 37.2 g in [2] (Week 14); 37.5 g in series [2] (Week 15); 38.6 g in series [2] (Week 16). The Mean Body Weight came out at 38.6 g in series [2] (Week 17), 38.9 g in series [2] (Week 18) and 39.1 g in series [2] (Week 19). In series [2] (Cyclophosphamide group), the “Relative end body weight (% of Week 11) ± SEM” value is 111.8% ± 1.7%. Also, the Mean proteinuria score with lupus [3] (Week 10) is given as 2.00; in the series with lupus [3] (Week 11) it was 2.05±; in the series with lupus [3] (Week 12), 2.10; in the series on lupus [3] (Week 13), 2.35; with lupus [3] (Week 14), 2.35; with lupus [3] (Week 15) it was 2.25. Also, the Mean proteinuria score with lupus [3] (Week 16) is listed as 1.85; in the series with lupus [3] (Week 17), 2.05; in the series on lupus [3] (Week 18), 2.10; in the series with lupus [3] (Week 19), 2.25. In addition, the “End proteinuria score ± SEM” value with lupus [3] (end of study (Week 19)) is 2.25 ± 0.13. For the same molecule, the “Total Glomerular Lesion (mean score)” value in the series with lupus [4] (setting [7]) is reported as 0.3. Moreover, in the series on lupus [4] (setting [7]), the “Total Glomerular Lesion (table title: Mean Total Kidney Lesion Scores)” value came to 0.6. Also, the “Total Tubular and Interstitial Lesion (mean score)” value with lupus [4] (setting [7]) was 0.3. In the series on lupus [4] (cyclophosphamide group), the “Mean total glomerular lesion score” value came out at 0.3. For the same molecule, in the series on lupus [4] (cyclophosphamide group), the “Mean total kidney lesion score” value was “about 0.6”. Also, the “Mean total tubular and interstitial lesion score” value with lupus [4] (cyclophosphamide group) was “about 0.3”. For the same molecule, in the series on lupus [5] (setting [7]), the “Mean Kidney Weight” value is recorded as 191 mg. Besides, the “Mean Spleen Weight” value in the series on lupus [5] (setting [7]) is on record as 116 mg. In addition, in the series with lupus [5] (Compound A (10 mg/kg) and cyclophosphamide groups), the “Kidney weights relative to controls” value is “slightly decreased kidney weights”. The “Spleen weights relative to vehicle controls” value with lupus [5] (Compound A (all tested doses) and cyclophosphamide) is “decreased spleen weights”. In addition, the BUN serum concentration with lupus [6] stood at 11.0 mg/dL. The entries for the “Anti-dsDNA Antibodies in serum, mean” value in the series on anti-dsDNA antibodies (Week 16) and in the series with anti-dsDNA antibodies (Week 19) were 28 units/mL and 23 units/mL, respectively. In the series with anti-dsDNA antibodies (Week 16 and Week 19, Compound A (10 mg/mL) and Cyclophosphamide), the “Anti-dsDNA antibodies in serum versus Vehicle group” value is on record as “effective in reducing levels to well below that seen with the Vehicle administered group”.

As to DC-806 [reference compound], the IC50 – broadly, the point on the concentration scale where inhibition reaches its midpoint – at IL-17A was 5.7 nM.
